The source of these data is patent US10626108B2, “Heterocyclic indoles for use in influenza virus infection” (Janssen Sciences Ireland UC, priority 2015, dated 2020).

In data set [1] the test system is influenza virus A/Taiwan/1/86 (H1N1). As to the kind of experiment: organism not typed. The class given is cell-based. The following applies: 72 h; MDCK cells infected with influenza A/Taiwan/1/86 (H1N1), MOI 0.001 or 0.01; CPE via ATP levels three days post-virus exposure.
A short description of data set [2]: in vitro. The following applies: dog.

For orientation: IC50 means the concentration needed to halve the response being measured. Read a high IC50 as weaker potency in that assay. Regarding `O=C(N[C@H]1CCC[C@@H](Nc2cnnc(-c3c[nH]c4c(F)cc(F)cc34)n2)C1)N1CCCC1` [Compound 28], it took 8 nM to reach half-maximal inhibition in data set [1] (IC50). Moreover, the CC50 at 3 days in data set [2] amounted to 15500 nM.
Regarding `O=C(O)[C@H]1C2CCC(CC2)[C@@H]1Nc1cnnc(-c2c[nH]c3c(F)cc(F)cc23)n1` (racemic) [Compound 6], inhibition in data set [1] was half-maximal at 130 nM (IC50). For the same molecule, the CC50 at 3 days in data set [2] is > 5000 nM.
`Cc1nc(-c2c[nH]c3c(F)cc(F)cc23)nc(N[C@H]2CCC[C@@H](NC(=O)c3csc(C(=O)O)n3)C2)c1F` [Compound 29] displayed an IC50 in data set [1] of 2 nM. Besides, the CC50 at 3 days in data set [2] is 21000 nM.
In data set [1], `Cc1nc(-c2c[nH]c3ncncc23)nc(N[C@@H]2CCC[C@H](NC(=O)c3ccccn3)C2)c1F` [Compound 21] displayed an IC50 of 1 nM. Further, the CC50 at 3 days in data set [2] was > 25000 nM.
As to `Cc1nc(-c2c[nH]c3c(F)cc(F)cc23)nc(N[C@H]2CCC[C@@H](NC(=O)c3cnn[nH]3)C2)c1F` [Compound 15], the midpoint of inhibition in data set [1], the IC50, lay at 0.2 nM. Moreover, the CC50 at 3 days in data set [2] turned out to be 3400 nM.
For the molecule `O=C(N[C@H]1CCC[C@@H](Nc2cncc(-c3c[nH]c4c(F)cc(F)cc34)n2)C1)N1CCCC1` [Compound 25], the IC50 in data set [1] was 26 nM. In data set [2], the CC50 at 3 days turned out to be 9700 nM.
Take `Cc1nc(-c2c[nH]c3c(F)cc(F)cc23)nc(N[C@H]2CCC[C@@H](NC(=O)c3cnn(C)c3)C2)c1F` [Compound 14]: the IC50 in data set [1] worked out at 2 nM. In data set [2], the CC50 at 3 days was > 25000 nM.
Regarding `Cc1nc(-c2c[nH]c3c(F)cc(F)cc23)nc(N[C@H]2CCC[C@@H](NC(=O)c3cn(C)cn3)C2)c1F` [Compound 13], it took 1 nM to reach half-maximal inhibition in data set [1] (IC50). The CC50 at 3 days in data set [2] was 10400 nM.
Molecule `O=C(N[C@H]1CCC[C@@H](Nc2nc(-c3c[nH]c4c(F)cc(F)cc34)nc(C(=O)O)c2F)C1)c1cnn[nH]1` [Compound 36] returned an IC50 in data set [1] of 7 nM. For the same molecule, the CC50 at 3 days in data set [2] is > 25000 nM.
